{"source": "patent US9555001B2", "about": "“Pharmaceutical composition and uses thereof” (Boehringer Ingelheim International GmbH, priority 2012, dated 2017)", "origin": "cited, not measured here", "details": "crystalline form described in WO 2006/117359"}
{"smiles": "OC[C@H]1O[C@@H](c2ccc(Cl)c(Cc3ccc(O[C@H]4CCOC4)cc3)c2)[C@H](O)[C@@H](O)[C@@H]1O", "note": "[Compound “A”, 1-chloro-4-(β-D-glucopyranos-1-yl)-2-[4-((S)-tetrahydrofuran-3-yloxy)-benzyl]-benzene]", "values": [{"measurement": "physico-chemical stability", "result": "physico-chemically stable"}, {"measurement": "solubility", "result": "good solubility properties"}]}
